US11154572B2, “Methods of treatment with natural killer cells matched for killer immunoglobulin receptor type” (Board of Regents, The University of Texas System, priority 2015, dated 2021)

Key:
[1] = tested on: iC9/CAR19/IL15+ NK cells; assay: Inducible caspase-9 suicide gene test, annexin-V-7AAD staining; assay type: cell-based, human; details: after 4 hours
Excerpt: (C) CAR-NK cells home to sites of disease, such as the spleen, bone marrow, and liver, in a Raji engrafted mouse at Day 16 post-infusion. (D) CAR-NK cells persist in Raji engrafted mice at Day 70 post infusion. (E) CAR-transduced CB-NK cells show an anti-tumor effect in vivo in Raji-FFLuc mice from Day 0 to Day 14. (F) CAR-transduced CB-NK cells show an anti-tumor effect in vivo in Raji-FFLuc mice from Day 21 to Day 35. […] (H) Survival curve with different NK cell treatments. (I) CAR.19.IL15-iCasp9 transduced CB-NK cells are eliminated after activation of the suicide gene by exposure to the small molecule AP1903 after 4 hours.
Because of concerns over autonomous, uncontrolled NK-cell growth due to autocrine production of IL-15, a suicide gene based on the inducible caspase-9 (IC9) gene was incorporated into the construct. To test the inducible caspase-9 suicide gene that was incorporated into the retroviral vector, 10 nM of CID AP20187 was added to cultures of iC9/CAR19/IL15+ NK cells. The AP20187 induced apoptosis/necrosis of transgenic cells within 4 hours as assessed by annexin-V-7AAD staining (FIG. 2I).

[2] = tested on: primary CD19+ tumor cells; assay: Cytotoxicity (percent lysis) against tumor cells; assay type: cell-based, human; details: combination with CAR-transduced NK cells
Excerpt: FIGS. 1A-1I: (A) CB NK cells were stably transduced with SFG.iCASP9.2A.CAR.CD19-28z.2A.[…]. Cell analysis for CD56 and CAR are shown from Day 10 to Day 44. (B) Histograms show NK receptor expression on ex vivo-expanded cord blood versus peripheral blood NK cells. NK receptors include KIR2DL2/DL3, KIR2DL1, NGK2A, NKP30, NKP44, and NKP46. (C) aAPC-expanded NK cells maintain an Eomes^hi and T-bet^hi phenotype. […] (G) NK cells co-expressing CAR.19-IL-15-iCasp9 form functional synapses with CD19^+ CLL cells. Cells are stained for Perforin, Phalloidin, and CAR and imaged by confocal microscopy. (H) CAR.19-IL-15-iCasp9 transduced CB-NK cells are more efficient at killing primary CD19^+ tumor cells. Percent lysis of tumor cells is shown at varying effector:target ratios of K562, Raji, and CLL cells. (I) The activity of cord blood-derived NK cells against primary CLL cells is enhanced with lenalidomide (Revlimid).
The immunological synapse in immune cells is a discrete structural entity that forms after the ligation of a specific activation receptor and enables the cell to progress through a series of biological steps that allow it to destroy cancer cells through the elaboration of the contents of NK cells lytic granules. To determine if the CAR-transduced NK cells formed immunological synapses with CD19^+ targets, the cells were stained with antiperforin, Phalloidin-F-actin and anti-CD19-CAR.

Structure (SMILES) | elimination of CAR.19.IL15-iCasp9 transduced CB-NK cells after activation of the suicide gene [1] | activity of CAR-transduced NK cells against patient-derived CLL cells on addition of lenalidomide [2]
CC[C@H](C(=O)N1CCCC[C@H]1C(=O)O[C@H](CCc1ccc(OC)c(OC)c1)c1cccc(OCC(=O)NCCNC(=O)COc2cccc([C@@H](CCc3ccc(OC)c(OC)c3)OC(=O)[C@@H]3CCCCN3C(=O)[C@@H](CC)c3cc(OC)c(OC)c(OC)c3)c2)c1)c1cc(OC)c(OC)c(OC)c1 [AP1903] | eliminated | 
Nc1cccc2c1CN(C1CCC(=O)NC1=O)C2=O (centres unmarked) [lenalidomide] |  | enhanced synergistically
